Tests used:
[1] = test system: cultured mammospheres; test: Morphology and morphometry of cultured mammospheres treated with serotonergic agents; format: cell-based, mouse; settings: for Mammosphere morphology (qualitative): 1 μg·ml−1, replenished each day, 7-day incubation
Experimental: Qualitative comparison of typical mammospheres in cultures treated with (a) control; (b) 5-HT; (c) methysergide; (d) PCPA. Each of the agents was added to the medium at a concentration of 1 μg·ml^−1 and replenished each day during a 7-day incubation. (e) histogram depicting the median areas (in arbitrary units) of mammospheres sorted by size (n=350, 2 replicate experiments) of control- and methysergide-treated cultures.
In addition to the effects on gene expression shown above, perturbing 5-HT signaling caused morphological changes in mammosphere cultures. Under control conditions the mammospheres were comprised of a boundary layer surrounding an interior lumenal space (FIG. 5a). Qualitatively, mammospheres treated with different serotonergic agents had markedly different structures. […] Those treated with PCPA were very distinctive because the boundary layer was consistently thin, and, there was a very high contrast between the dark boundary and light central space.
We performed a morphometric comparison of control and methysergide-treated mammospheres employing a Macintosh computer using the public domain NIH Image program (developed at the U.S. National Institutes of Health and available on the Internet at http://rsb.info.nih.gov/nih-image/). Threshold was adjusted to automatically outline the mammospheres, and the organoids were sorted into a frequency distribution based on particle sizes. The median size of the methysergide-treated mammospheres was about 40% larger than the control mammospheres (p<0.01; Mann-Whitney U-test; FIG. 5e).
(§1) Primary mouse mammary epithelium was prepared from nulliparous mice by enzymatic digestion and differential trypsinization, modifying the method of Imagawa (Pedchenko, V. K. & Imagawa, W. T. Mammogenic hormones differentially modulate keratinocyte growth factor (KGF)-induced proliferation and KGF receptor expression in cultured mouse mammary gland epithelium. Endocrinology 139,2519-2526 (1998)). Enriched epithelial cells (2×10^5 cells per well) were plated in basement membrane (Matrigel, 0.5 ml/well, BD Biosciences) reconstituted in a 12-well plate so that they formed mammospheres. They were pre-incubated for seven days, and treated with ovine PRL (1 μg/ml) for 2 days. The cell culture experiments were replicated 2-3 times in all cases.

[2] = test system: WAP gene expression in cultured mammospheres; test: Milk protein gene expression (RT-PCR) in mammosphere cultures treated with serotonergic agents; format: cell-based, mouse; settings: cells cultured in 1% fetal serum, WAP constitutively expressed at a low level
Experimental: Primary mouse mammary cultures were treated with PRL, methysergide (Methy.), or 5-HT as noted (+). RT-PCR products for various genes expressed in the mammary gland are shown by the labels at the left margin.
We tested whether 5-HT might have an autocrine/paracrine effect first by examining the expression of various genes in mammosphere cultures (FIG. 4), and then by morphometry (FIG. 5). Using a broad-spectrum 5-HT receptor antagonist methysergide, in combination with PRL, we observed that the expression levels of several mammary gland genes, including whey acidic protein (WAP), glycosylated cell adhesion molecule-1 (GlyCAM-1) and […]. The effects of both 5-HT and methysergide (agonist and antagonist) were tested using cells cultured in 1% fetal serum, wherein the WAP gene is constitutively expressed at a low level. Under these conditions 5-HT suppressed WAP, and methysergide induced WAP.
Primary mouse mammary epithelium was prepared from nulliparous mice by enzymatic digestion and differential trypsinization, modifying the method of Imagawa (Pedchenko, V. K. & Imagawa, W. T. Mammogenic hormones differentially modulate keratinocyte growth factor (KGF)-induced proliferation and KGF receptor expression in cultured mouse mammary gland epithelium. Endocrinology 139,2519-2526 (1998)). […]

[3] = test system: lactating dams (mice); test: Milk yield of nursing dams given carbidopa injections (nursing-related weight loss as index of milk yield); format: in vivo
Experimental: Nursing dams were given 4 injections of carbidopa (1 mg/kg body weight) at 12 h intervals (or control vehicle). After the final injection the pups were removed from the dam for 4 h. At the end of 4 h the dams were weighed and reunited with the pups to nurse for 1 h. After the nursing interval the dams were again weighed and the nursing-related weight losses were analyzed as an index of milk yield (Table 1). The litters of lactating dams (mice) were adjusted to 8 pups on day 1 postpartum. Carbidopa (1 mg/kg in 45% hydroxypropyl-β-cyclodextrin) or control vehicle were injected at approximately 12 h intervals beginning in the evening of postpartum day 3. After 4 injections (morning of day 5) pups were separated from the dams for 4 h. At the end of separation interval, the dams were injected with oxytocin (0.2U) and both the dams and their litters and were weighed. The litters were reunited with the dams for a 1 h nursing interval. The weights of the dams were measured after nursing and the differences in the weights of the dams before and after nursing are reported as milk yield. The percent increases with carbidopa-treatment are shown for statistically significant variables. […] Numbers of animals in treatment groups are in parentheses.

[4] = test system: TPH mRNA in primary mouse mammary epithelial organoids; test: TPH mRNA induction in primary cultures of mammary epithelial organoids; format: cell-based
Experimental: (b) TPH induction by milk stasis. Contralateral #3 glands were either open and suckled (+) or sealed with cyanoacrylate glue and unsuckled (−). RT-PCR was performed for TPH and glyceraldehyde-phosphate-dehydrogenase (GPDH), as shown.
(§2) Having established that mammary gland TPH expression was induced in vivo we studied TPH induction in primary cultures of mammary epithelial organoids. These organoids, sometimes referred to as “mammospheres,” secrete milk proteins, fluids and ions vectorially into a closed central lumen when cultured with lactogenic hormones. TPH increased slowly for at least 48 h following addition of PRL to the medium, and the optimum PRL dose was 1 μg/ml (approximately 20 nM) (FIG. 2a). […] First, the time course of TPH mRNA induction was much slower that other genes known to be directly regulated by PRL. Secondly, the in vitro induction was blocked by cycloheximide; and thirdly, the TPH promoter was not induced by PRL in reporter gene assays (unpublished results).
as §1

[5] = test system: TPH promoter; test: TPH promoter reporter gene assays; format: cell-based; settings: unpublished results
Experimental: as §2

[6] = carbidopa 1 mg/kg, 4 injections

## N[C@@H](Cc1ccc(Cl)cc1)C(=O)O (racemic) [PCPA, p-chloro-phenylalanine]
[1]
  Mammosphere morphology (qualitative): easily visible central lumena

## NCCc1c[nH]c2ccc(O)cc12 [5-HT, 5-hydroxytryptamine]
[2]
  Effect on WAP gene expression: suppressed
[1]; 1 μg·ml−1, 7-day incubation, no quantitative morphometry
  Mammosphere size vs controls (qualitative): smaller than the controls
[1]
  Mammosphere morphology (qualitative): either filled or collapsed, with no obvious lumen

## C[C@@](Cc1ccc(O)c(O)c1)(NN)C(=O)O [Carbidopa, S-(−)-α-hydrazino-3,4-dihydroxy-2-methylbenzenepropanoic acid]
[3]; [6]
  Percent increase in litter weight relative to dam weight with carbidopa treatment vs vehicle control: >8.1%
  Percent increase in milk yield with carbidopa treatment vs vehicle control: >16.7%
[3]; carbidopa 1 mg/kg, 4 injections at 12 h intervals, 4 h separation, 1 h nursing, mean ± s.e.m.
  Milk Yield (difference in dam weight before and after 1 h nursing): 2.1 ± 0.1 g
[3]; carbidopa 1 mg/kg, 4 injections, absolute basis
  Percent increase in litter (pup) weight with carbidopa treatment vs vehicle control: >11.6%
[3]; carbidopa 1 mg/kg, 4 injections, mean ± s.e.m.
  Litter/Dam (litter weight relative to dam weight): 0.93 ± 0.03
[3]; litters of 8 pups, carbidopa 1 mg/kg to dam, 4 injections, mean ± s.e.m.
  Litter Weight: 36.5 ± 1.8 g

## C[C@@H]1C[C@@H]([C@H](O)CC2CC(=O)NC(=O)C2)C(=O)[C@@H](C)C1 [cycloheximide]
[4]
  Effect on in vitro induction of TPH by PRL: blocked

## CC[C@@H](CO)NC(=O)[C@@H]1C=C2c3cccc4c3c(cn4C)C[C@H]2N(C)C1 [methysergide]
[2]
  Effect on WAP gene expression: induced
[1]; 1 μg·ml−1, 7-day incubation, p<0.01, Mann-Whitney U-test
  Median size of mammospheres, increase vs control mammospheres: about 40%
[1]
  Mammosphere morphology (qualitative): easily visible central lumena

B1: PRL: prolactin, lactogenic hormone; ovine PRL added to the mammosphere cultures (protein, UniProt P01240 31-229, looked up)
Prolactin: TPVCPNGPGNCQVSLRDLFDRAVMVSHYIHNLSSEMFNEFDKRYAQGKGFITMALNSCHTSSLPTPEDKEQAQQTHHEVLMSLILGLLRSWNDPLYHLVTEVRGMKGVPDAILSRAIEIEEENKRLLEGMEMIFGQVIPGAKETEPYPVWSGLPSLQTKDEDARHSAFYNLLHCLRRDSSKIDTYLKLLNCRIIYNNNC
[4]
  Optimum dose for TPH mRNA induction: 1 µg/mL
  Optimum dose for TPH mRNA induction (molar): approximately 20 nM
[5]
  Induction of the TPH promoter: not induced

— patent US7241797B2, “Method of increasing milk production” (University of Cincinnati, priority 2002, dated 2007)
